Assay results published in US20190262453A1, “DESIGN AND COMPOSITION OF CELL-STABILIZED PHARMACEUTICAL FORMULATIONS” (THE REGENTS OF THE UNIVERSITY OF MICHIGAN, priority 2016, published 2019).

Test: Biochemical analysis of CFZ in tissues
Assay type: in vivo
Conditions: clodronate-treated mice versus PBS
Method: Mice were fed CFZ or a control diet continuously for a four week period. Following two weeks of feeding, liposome treatment began for two weeks. After completing four weeks of feeding and two weeks of liposome treatment, the mice were sacrificed and tissues were collected.
The concentration of CFZ in organs was determined spectrophotometrically. After four weeks of CFZ- or vehicle-diet treatment, mice were euthanized via CO2 asphyxiation, and blood and organs were collected. Tissue (20-30 mg) was homogenized in 500 μL of RIPA buffer, and 350 μL of homogenate was removed drug was extracted with three passes of 1 mL of xylenes. The drug was then extracted from the xylene with three 1 mL passes of 9M sulfuric acid. The concentration of CFZ present in the tissue was then determined using a plate reader at wavelength 450 nm.

CC(C)N=c1cc2n(-c3ccc(Cl)cc3)c3ccccc3nc-2cc1Nc1ccc(Cl)cc1 [CFZ, 3-(p-chloroanilino)-10-(p-chlorophenyl)-2, 10-dihydro-2-isopropyliminophenazine]
reduction in the total amount of drug found in the liver: 75±7%
reduction in the total amount of drug found in the spleen: 88±7%
difference in total amount of drug found in the kidney (p=0.77): no difference
